± gives the expanded uncertainty stated by the source.
Conditions: Liquid

CC(O)CO (centres undefined) [1,2-propanediol]
Conditions | mass density [kg/m3] | viscosity [mPa·s]
292.1 K, 101.33 kPa, Capillary tube (Ostwald / Ubbelohde) method | – | 60.61 ± 0.37
293.1 K, 101.33 kPa, Capillary tube (Ostwald / Ubbelohde) method | – | 58.09 ± 0.34
293.15 K, 101.33 kPa, Pycnometric method | 1035.5 ± 0.3 | –
298.15 K, 98 kPa, Buoyancy - hydrostatic balance | 1032.56 ± 1.6 | –
298.15 K, 98 kPa, Falling or rolling sphere viscometry | – | 43.69 ± 0.96
298.15 K, 101.33 kPa, Capillary tube (Ostwald / Ubbelohde) method | – | 43.69 ± 0.33
298.15 K, 101.33 kPa, Pycnometric method | 1032.56 ± 0.28 | –
298.15 K, 49030 kPa, Buoyancy - hydrostatic balance | 1055.29 ± 1.6 | –
298.15 K, 49030 kPa, Falling or rolling sphere viscometry | – | 64.02 ± 1.4
298.15 K, 98060 kPa, Buoyancy - hydrostatic balance | 1072.94 ± 1.6 | –
298.15 K, 98060 kPa, Falling or rolling sphere viscometry | – | 94.28 ± 2.7
298.15 K, 147100 kPa, Buoyancy - hydrostatic balance | 1088.48 ± 3.3 | –
298.15 K, 147100 kPa, Falling or rolling sphere viscometry | – | 134.1 ± 4.9
298.15 K, 196130 kPa, Buoyancy - hydrostatic balance | 1104.32 ± 3.3 | –
298.15 K, 196130 kPa, Falling or rolling sphere viscometry | – | 187.2 ± 8.5
298.15 K, 245160 kPa, Buoyancy - hydrostatic balance | 1115.28 ± 3.4 | –
298.15 K, 245160 kPa, Falling or rolling sphere viscometry | – | 260.7 ± 15
303.15 K, 98 kPa, Buoyancy - hydrostatic balance | 1028.87 ± 1.5 | –
303.15 K, 98 kPa, Falling or rolling sphere viscometry | – | 32.35 ± 0.71
303.15 K, 49030 kPa, Buoyancy - hydrostatic balance | 1052.03 ± 1.6 | –
303.15 K, 49030 kPa, Falling or rolling sphere viscometry | – | 48.25 ± 1.1
303.15 K, 98060 kPa, Buoyancy - hydrostatic balance | 1070.79 ± 1.6 | –
303.15 K, 98060 kPa, Falling or rolling sphere viscometry | – | 69.46 ± 1.6
303.15 K, 147100 kPa, Buoyancy - hydrostatic balance | 1086.25 ± 3.3 | –
303.15 K, 147100 kPa, Falling or rolling sphere viscometry | – | 97.33 ± 2.8
303.15 K, 196130 kPa, Buoyancy - hydrostatic balance | 1101.4 ± 3.3 | –
303.15 K, 196130 kPa, Falling or rolling sphere viscometry | – | 134.7 ± 5
303.15 K, 245160 kPa, Buoyancy - hydrostatic balance | 1112.65 ± 3.3 | –
303.15 K, 245160 kPa, Falling or rolling sphere viscometry | – | 183.3 ± 8.3
303.4 K, 101.33 kPa, Capillary tube (Ostwald / Ubbelohde) method | – | 31.54 ± 0.21
312.98 K, 98 kPa, Buoyancy - hydrostatic balance | 1022.16 ± 1.5 | –
312.98 K, 98 kPa, Falling or rolling sphere viscometry | – | 19.45 ± 0.42
313 K, 49030 kPa, Buoyancy - hydrostatic balance | 1046.22 ± 1.6 | –
313 K, 49030 kPa, Falling or rolling sphere viscometry | – | 28.34 ± 0.61
313.03 K, 147100 kPa, Buoyancy - hydrostatic balance | 1081.67 ± 3.2 | –
313.03 K, 147100 kPa, Falling or rolling sphere viscometry | – | 54.68 ± 1.1
313.03 K, 245160 kPa, Buoyancy - hydrostatic balance | 1107.51 ± 3.3 | –
313.03 K, 245160 kPa, Falling or rolling sphere viscometry | – | 98.04 ± 2.9
313.04 K, 196130 kPa, Buoyancy - hydrostatic balance | 1095.69 ± 3.3 | –
313.04 K, 196130 kPa, Falling or rolling sphere viscometry | – | 73.88 ± 1.8
313.05 K, 98060 kPa, Buoyancy - hydrostatic balance | 1065.24 ± 1.6 | –
313.05 K, 98060 kPa, Falling or rolling sphere viscometry | – | 39.87 ± 0.86
313.15 K, 101.33 kPa, Pycnometric method | 1021.9 ± 0.3 | –
313.9 K, 101.33 kPa, Capillary tube (Ostwald / Ubbelohde) method | – | 19.37 ± 0.15
316 K, 101.33 kPa, Capillary tube (Ostwald / Ubbelohde) method | – | 17.04 ± 0.14
332.1 K, 101.33 kPa, Capillary tube (Ostwald / Ubbelohde) method | – | 8.76 ± 0.058
333.15 K, 101.33 kPa, Pycnometric method | 1006.3 ± 0.4 | –
335.76 K, 98060 kPa, Buoyancy - hydrostatic balance | 1050.34 ± 1.6 | –
335.76 K, 98060 kPa, Falling or rolling sphere viscometry | – | 14.23 ± 0.31
335.78 K, 98 kPa, Buoyancy - hydrostatic balance | 1005.31 ± 1.5 | –
335.78 K, 98 kPa, Falling or rolling sphere viscometry | – | 7.524 ± 0.16
335.78 K, 147100 kPa, Buoyancy - hydrostatic balance | 1068.19 ± 3.2 | –
335.78 K, 147100 kPa, Falling or rolling sphere viscometry | – | 18.86 ± 0.41
335.8 K, 49030 kPa, Buoyancy - hydrostatic balance | 1029.3 ± 1.6 | –
335.8 K, 49030 kPa, Falling or rolling sphere viscometry | – | 10.59 ± 0.23
335.8 K, 196130 kPa, Buoyancy - hydrostatic balance | 1082.92 ± 3.2 | –
335.8 K, 196130 kPa, Falling or rolling sphere viscometry | – | 24.61 ± 0.54
336.01 K, 245160 kPa, Buoyancy - hydrostatic balance | 1095.8 ± 3.3 | –
336.01 K, 245160 kPa, Falling or rolling sphere viscometry | – | 30.53 ± 0.67
353.15 K, 101.33 kPa, Pycnometric method | 990.28 ± 0.4 | –
353.4 K, 101.33 kPa, Capillary tube (Ostwald / Ubbelohde) method | – | 4.29 ± 0.061
353.6 K, 101.33 kPa, Capillary tube (Ostwald / Ubbelohde) method | – | 4.18 ± 0.06
364.39 K, 98 kPa, Buoyancy - hydrostatic balance | 981.63 ± 1.5 | –
364.39 K, 98 kPa, Falling or rolling sphere viscometry | – | 3.034 ± 0.065
364.66 K, 49030 kPa, Buoyancy - hydrostatic balance | 1007.36 ± 1.5 | –
364.66 K, 49030 kPa, Falling or rolling sphere viscometry | – | 4.074 ± 0.088
364.83 K, 98060 kPa, Buoyancy - hydrostatic balance | 1031.15 ± 1.6 | –
364.83 K, 98060 kPa, Falling or rolling sphere viscometry | – | 5.292 ± 0.11
364.87 K, 147100 kPa, Buoyancy - hydrostatic balance | 1051.61 ± 3.2 | –
364.87 K, 147100 kPa, Falling or rolling sphere viscometry | – | 6.718 ± 0.14
364.99 K, 245160 kPa, Buoyancy - hydrostatic balance | 1081.56 ± 3.2 | –
364.99 K, 245160 kPa, Falling or rolling sphere viscometry | – | 10.31 ± 0.22
365 K, 196130 kPa, Buoyancy - hydrostatic balance | 1067.32 ± 3.2 | –
365 K, 196130 kPa, Falling or rolling sphere viscometry | – | 8.372 ± 0.18
365.15 K, 101.33 kPa, Pycnometric method | 978.97 ± 0.42 | –
368.15 K, 101.33 kPa, Pycnometric method | 977.28 ± 0.42 | –
388.6 K, 101.33 kPa, Capillary tube (Ostwald / Ubbelohde) method | – | 1.767 ± 0.015
389.3 K, 101.33 kPa, Capillary tube (Ostwald / Ubbelohde) method | – | 1.7 ± 0.014
394.95 K, 98 kPa, Buoyancy - hydrostatic balance | 953.22 ± 1.4 | –
394.95 K, 98 kPa, Falling or rolling sphere viscometry | – | 1.504 ± 0.032
395.11 K, 49030 kPa, Buoyancy - hydrostatic balance | 982.98 ± 1.5 | –
395.11 K, 49030 kPa, Falling or rolling sphere viscometry | – | 1.954 ± 0.042
395.17 K, 98060 kPa, Buoyancy - hydrostatic balance | 1010.62 ± 1.5 | –
395.17 K, 98060 kPa, Falling or rolling sphere viscometry | – | 2.451 ± 0.052
395.38 K, 147100 kPa, Buoyancy - hydrostatic balance | 1033.92 ± 3.1 | –
395.38 K, 147100 kPa, Falling or rolling sphere viscometry | – | 3.011 ± 0.065
395.57 K, 196130 kPa, Buoyancy - hydrostatic balance | 1051.9 ± 3.2 | –
395.57 K, 196130 kPa, Falling or rolling sphere viscometry | – | 3.659 ± 0.078
395.68 K, 245160 kPa, Buoyancy - hydrostatic balance | 1067.12 ± 3.2 | –
395.68 K, 245160 kPa, Falling or rolling sphere viscometry | – | 4.374 ± 0.094
399.15 K, 101.33 kPa, Pycnometric method | 949.76 ± 0.49 | –
423.3 K, 101.33 kPa, Capillary tube (Ostwald / Ubbelohde) method | – | 0.926 ± 0.006
423.51 K, 98 kPa, Buoyancy - hydrostatic balance | 926.76 ± 1.4 | –
423.51 K, 98 kPa, Falling or rolling sphere viscometry | – | 0.925 ± 0.02
423.62 K, 49030 kPa, Buoyancy - hydrostatic balance | 959.18 ± 1.4 | –
423.62 K, 49030 kPa, Falling or rolling sphere viscometry | – | 1.239 ± 0.026
423.65 K, 101.33 kPa, Pycnometric method | 925.92 ± 0.54 | –
423.9 K, 98060 kPa, Buoyancy - hydrostatic balance | 989.94 ± 1.5 | –
423.9 K, 98060 kPa, Falling or rolling sphere viscometry | – | 1.533 ± 0.033
423.97 K, 147100 kPa, Buoyancy - hydrostatic balance | 1016.34 ± 3 | –
423.97 K, 147100 kPa, Falling or rolling sphere viscometry | – | 1.89 ± 0.04
424.05 K, 196130 kPa, Buoyancy - hydrostatic balance | 1038.38 ± 3.1 | –
424.05 K, 196130 kPa, Falling or rolling sphere viscometry | – | 2.244 ± 0.048
424.3 K, 245160 kPa, Buoyancy - hydrostatic balance | 1054.25 ± 3.2 | –
424.3 K, 245160 kPa, Falling or rolling sphere viscometry | – | 2.608 ± 0.056
450.15 K, 101.33 kPa, Pycnometric method | 896.89 ± 0.59 | –
452.07 K, 245160 kPa, Buoyancy - hydrostatic balance | 1042.31 ± 3.1 | –
452.07 K, 245160 kPa, Falling or rolling sphere viscometry | – | 1.656 ± 0.035
452.1 K, 49030 kPa, Buoyancy - hydrostatic balance | 934.51 ± 1.4 | –
452.1 K, 49030 kPa, Falling or rolling sphere viscometry | – | 0.81 ± 0.017
452.14 K, 98060 kPa, Buoyancy - hydrostatic balance | 965.53 ± 1.4 | –
452.14 K, 98060 kPa, Falling or rolling sphere viscometry | – | 0.995 ± 0.021
452.17 K, 98 kPa, Buoyancy - hydrostatic balance | 900.36 ± 1.4 | –
452.17 K, 98 kPa, Falling or rolling sphere viscometry | – | 0.604 ± 0.013
452.18 K, 196130 kPa, Buoyancy - hydrostatic balance | 1022.83 ± 3.1 | –
452.18 K, 196130 kPa, Falling or rolling sphere viscometry | – | 1.425 ± 0.03
452.19 K, 147100 kPa, Buoyancy - hydrostatic balance | 996.01 ± 3 | –
452.19 K, 147100 kPa, Falling or rolling sphere viscometry | – | 1.212 ± 0.026
458.9 K, 101.33 kPa, Capillary tube (Ostwald / Ubbelohde) method | – | 0.533 ± 0.004

Source: the NIST ThermoML archive (doi:10.1016/j.fluid.2017.07.006)
